Values quoted from earlier work, collected in US20130115264A1, “IMPLANTABLE RASAGILINE COMPOSITIONS AND METHODS OF TREATMENT THEREOF” (Endo Pharmaceuticals Solutions Inc., priority 2011, published 2013).
Structures can show the parent of a compound that is named as a salt.

Assays:
MAO-B = conditions: ex vivo, brain, liver and intestinal tissues
[1] = in vivo
[2] = oral dosage form

SMILES | MAO-B inhibition (MAO-B) | half-life [1] | oral bioavailability [2]
C#CCN[C@@H]1CCc2ccccc21 [rasagiline, R-(+)-N-propargyl-1-aminoindan] | potent, irreversible MAO-B selective inhibitor | about 3 hours | 
C#CCN[C@@H]1CCc2ccccc21 [rasagiline mesylate] |  |  | ~35%
